Data published in patent US11304966B2, “Composition comprising HMOs for preventing or reducing nociception” (Glycom A/S, priority 2017, dated 2022).

Target: T1, GPR35 receptor (Homo sapiens, UniProt Q9HC97)
T1 construct: expressed in transfected cells
Assay: PathHunter β-Arrestin assay, activation of GPR35 expressed in cultured cells
Assay type: cell-based
Conditions: for activation of GPR35: up to 10 mM; for EC50: highest concentration tested 10 mM, duplicate
Source text: Six human milk oligosaccharides (LNnT, LNT, 2′-FL, DFL, 6′-SL and 3′-SL) are screened for their ability to activate the GPR35 receptor in the PathHunter β-Arresin assay. This assay monitors the activation of GPR35 expressed in cultured cells, using Enzyme Fragment Complementation with β-galactosidase (β-Gal) as the functional reporter. […] EA is fused to β-Arrestin and PK is fused to GPR35. When the GPR35 is activated and β-Arrestin is recruited to the receptor, PK and EA complementation occurs, restoring β-Gal activity, which is measured using chemiluminescent Detection Reagents.
The GPR35 cell line is expanded from frozen stocks and cultured according to standard procedures. Cells are seeded in a total volume of 20 μl into white walled, 384-well microplates and incubated at 37° C. for the appropriate time prior to testing. All testing is done in duplicate. The HMO samples are held in the form of concentrated stocks in Phosphate Buffered saline (PBS). A 5× dilution compound working intermediate is prepared in PBS. Five μl of the sample is added to the cells and incubated at room temperature for 3 to 5 hours. The assay signal is generated through a single addition of 12.5 μl (50 v/v %) of PathHunter Detection reagent cocktail, followed by one-hour incubation at room temperature. Microplates are read following signal generation with a PerkinElmer Envision™ instrument for chemiluminescent signal detection. Zaprinast (which is known to be an activator of GPR35) is used as positive control. Dose-response is generated by iterative 3× dilutions of the highest concentration tested (10 mM).

T1 sequence (Q9HC97 whole entry): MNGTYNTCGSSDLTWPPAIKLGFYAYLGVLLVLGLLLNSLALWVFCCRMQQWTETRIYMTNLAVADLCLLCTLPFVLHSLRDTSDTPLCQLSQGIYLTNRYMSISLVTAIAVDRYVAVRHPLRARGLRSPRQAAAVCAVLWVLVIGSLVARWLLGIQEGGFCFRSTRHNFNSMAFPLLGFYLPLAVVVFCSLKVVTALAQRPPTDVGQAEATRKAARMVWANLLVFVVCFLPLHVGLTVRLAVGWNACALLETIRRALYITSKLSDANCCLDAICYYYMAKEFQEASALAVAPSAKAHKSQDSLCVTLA
T1 sequence (P32121 whole entry partner): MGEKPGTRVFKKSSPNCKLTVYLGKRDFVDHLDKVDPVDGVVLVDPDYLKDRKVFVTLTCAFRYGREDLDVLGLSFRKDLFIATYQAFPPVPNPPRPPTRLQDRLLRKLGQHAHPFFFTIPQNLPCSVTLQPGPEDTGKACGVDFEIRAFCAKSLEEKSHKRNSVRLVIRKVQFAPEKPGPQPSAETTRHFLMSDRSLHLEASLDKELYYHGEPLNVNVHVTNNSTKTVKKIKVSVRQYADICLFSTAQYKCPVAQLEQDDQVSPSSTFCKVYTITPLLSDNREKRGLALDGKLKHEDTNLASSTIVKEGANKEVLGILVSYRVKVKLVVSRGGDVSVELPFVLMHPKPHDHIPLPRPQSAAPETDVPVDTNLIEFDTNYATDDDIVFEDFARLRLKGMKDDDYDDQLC

activation of GPR35	EC50 [mM]	Structure (SMILES)
No activation		CC(=O)N[C@H]1[C@H](O[C@H]2[C@@H](O)[C@@H](CO)O[C@@H](O[C@H]3[C@H](O)[C@@H](O)C(O)O[C@@H]3CO)[C@@H]2O)O[C@H](CO)[C@@H](O[C@@H]2O[C@H](CO)[C@H](O)[C@H](O)[C@H]2O)[C@@H]1O (mixture of isomers) [LNnT, lacto-N-neotetraose]
No activation		C[C@@H]1O[C@@H](O[C@H]2[C@H](O[C@H]3[C@H](O[C@@H]4O[C@@H](C)[C@@H](O)[C@@H](O)[C@@H]4O)[C@@H](O)C(O)O[C@@H]3CO)O[C@H](CO)[C@H](O)[C@@H]2O)[C@@H](O)[C@H](O)[C@@H]1O (some centres unmarked) [DFL, difucosyllactose]
	4.5	CC(=O)N[C@H]1[C@H](O[C@H]2[C@@H](O)[C@@H](CO)O[C@@H](O[C@H]3[C@H](O)[C@@H](O)C(O)O[C@@H]3CO)[C@@H]2O)O[C@H](CO)[C@@H](O)[C@@H]1O[C@@H]1O[C@H](CO)[C@H](O)[C@H](O)[C@H]1O (some centres unmarked) [LNT, lacto-N-tetraose]

The remaining lines, values behind:

Structure (SMILES)	activation of GPR35	EC50 [mM]
CC(=O)N[C@H]1[C@H]([C@H](O)[C@H](O)CO)O[C@@](O[C@H]2[C@@H](O)[C@@H](CO)O[C@@H](O[C@H]3[C@H](O)[C@@H](O)C(O)O[C@@H]3CO)[C@@H]2O)(C(=O)O)C[C@@H]1O (some centres unmarked) [3′-SL, 3′-sialyllactose]	No activation	
CC(=O)N[C@H]1[C@H]([C@H](O)[C@H](O)CO)O[C@@](OC[C@H]2O[C@@H](O[C@H]3[C@H](O)[C@@H](O)[C@H](O)O[C@@H]3CO)[C@H](O)[C@@H](O)[C@H]2O)(C(=O)O)C[C@@H]1O [6′-SL, 6′-sialyllactose]		6.5
